Results reported in patent US11464783B2, “Heterocyclic compounds” (Aligos Therapeutics, Inc., priority 2019, dated 2022).

System: HBV
Experiment: HBV-DNA Antiviral Assay Using HepG2.117 Cells
Format: cell-based
Conditions: Hepatitis B virus, HepG2.117, 96 h, intracellular HBV DNA by qPCR, day 4
Description: The following assay procedure describes the HBV antiviral assay, using HepG2.117 cells, which carry a stably integrated genotype D HBV genome under the control of a Tet-off promoter, and intracellular HBV DNA quantification as endpoint. Cell viability is assessed in parallel by measuring the intracellular ATP content using ATPlite (Perkin Elmer).
On day 0, HepG2.117 cells (which are maintained in routine cell culture with doxycycline present in the medium at a final concentration of 1 μg/mL) were seeded in 96-well plates (white with clear bottom) at a density of 2.0×10^4 cells/well (0.1 mL/well) in medium without doxycycline to induce pgRNA transcription and subsequent formation of HBV particles. The cells were incubated at 37° C. and 5% CO2.
On day 1, medium was removed from each well, the test articles were diluted in culture medium without doxcycyline and 100 μL was added to cell culture wells (9 concentrations, 4-fold dilution). For each plate, 6 untreated (merely DMSO) wells were included. The final concentration of DMSO in the culture medium was 2%. Each plate was prepared in duplicate (one for HBV DNA extraction, one for ATPlite measurement). The cells were incubated at 37° C. and 5% CO2 for 3 days.
On day 4, cell viability was assessed using ATPlite and cell lysates were prepared for HBV DNA extraction and subsequent quantification by qPCR.
Medium was removed from each well and 100 μL of 0.33% NP-40 in H2O was added to each well. Plates were sealed, incubated at 4° C. for 5 mins, vortexed extensively and centrifuged briefly. Next, 35 μL of lysate was added to 65 μL QuickExtract DNA Extraction Solution (Epicentre) in a PCR plate for each well. PCR plate was incubated at 65° C. for 6 mins, 98° C. for 2 mins and finally cooled to 4° C. HBV DNA was then quantified by qPCR with HBV-specific primers and probes as specified in Table 2 using the Bio-Rad SSOAdvanced Universal Probes Supermix on a CFX96 machine (Bio-Rad). The PCR cycle program consisted of 95° C. for 3 mins, followed by 40 cycles at 95° C. for 10 sec and 60° C. for 30 sec.
A DNA standard was prepared by dilution of an IDT gBlock corresponding to the amplicon with concentrations ranging from 10^2 to 10^8 copies/input (i.e. per 4 μL) and used to generate a standard curve by plotting Cq values vs. HBV DNA standard concentration. The quantity of HBV DNA in each sample was determined by interpolating from the standard curve.
Cell viability was calculated as follows: % Cell viability=(luminescence value of test sample)/(average luminescence value of 2% DMSO control)×100%. HBV DNA inhibition was calculated as follows: 100−(HBV DNA copy number of test sample)/(average HBV DNA copy number of 2% DMSO control)×100%. No normalization to entecavir was required due to the excellent dynamic window of this assay. The CC50, EC so and EC90 values were determined by dose-response curves fitted by GraphPad Prism using “log (agonist) vs. response—Variable slope”.

Row | Structure (SMILES) | EC50 [µM]
1 | CC(C)NC(=O)C1CN(C(=O)c2ccc(Br)c(Cl)c2)CCS1(=O)=O (stereo not drawn) [Compound 1, 4-(4-bromo-3-chlorobenzoyl)-N-isopropylthiomorpholine-2-carboxamide 1,1-dioxide] | 0.5 to 5
2 | O=C(Nc1ccccc1)C1CN(C(=O)c2ccc(Br)c(Cl)c2)CCS1(=O)=O (stereo not drawn) [Compound 2, 4-(4-bromo-3-chlorobenzoyl)-N-phenylthiomorpholine-2-carboxamide 1,1-dioxide] | 0.5 to 5
3 | O=C(NCc1ccccc1)C1CN(C(=O)c2ccc(Br)c(Cl)c2)CCS1(=O)=O (stereo not drawn) [Compound 3, N-benzyl-4-(4-bromo-3-chlorobenzoyl)thiomorpholine-2-carboxamide 1,1-dioxide] | 0.1 to 0.5
4 | O=C(NCCc1ccccc1)C1CN(C(=O)c2ccc(Br)c(Cl)c2)CCS1(=O)=O (stereo not drawn) [Compound 4, 4-(4-bromo-3-chlorobenzoyl)-N-phenethylthiomorpholine-2-carboxamide 1,1-dioxide] | 0.5 to 5
5 | O=C(c1ccc(Cl)cc1F)N1CCS(=O)(=O)C(c2cccs2)C1 (stereo not drawn) [Compound 10b, (4-chloro-2-fluoro-phenyl)-[1,1-dioxo-2-(2-thienyl)-1,4-thiazinan-4-yl]methanone] | 0.5 to 5
6 | O=C(c1cc(F)cc(Cl)c1)N1CCS(=O)(=O)C(c2cccs2)C1 (stereo not drawn) [Compound 13a, (3-chloro-5-fluoro-phenyl)-[1,1-dioxo-2-(2-thienyl)-1,4-thiazinan-4-yl]methanone] | 0.5 to 5
7 | Cn1cnc(-c2ccc(C3CN(C(=O)Nc4ccc(F)c(Cl)c4)CCS3(=O)=O)s2)c1 (stereo not drawn) [Compound 15a, N-(3-chloro-4-fluoro-phenyl)-2-[5-(1-methylimidazol-4-yl)-2-thienyl]-1,1-dioxo-1,4-thiazinane-4-carboxamide] | 0.5 to 5

Same assay, conditions: intracellular HBV DNA by qPCR, day 4

Row | Structure (SMILES) | EC50 [µM]
8 | CC1(c2ncc(Cc3ccccc3)s2)CN(C(=O)c2ccc(Br)c(Cl)c2)CCS1(=O)=O (racemic) [Compound 36a, (4-bromo-3-chloro-phenyl)-[rac-(2S)-2-(5-benzylthiazol-2-yl)-2-methyl-1,1-dioxo-1,4-thiazinan-4-yl]methanone] | 0.5 to 5
9 | CC1(c2ncc(Cc3ccccc3)s2)CN(C(=O)c2ccc(Br)c(Cl)c2)CCS1(=O)=O (racemic) [Compound 36b, (4-bromo-3-chloro-phenyl)-[rac-(2R)-2-(5-benzylthiazol-2-yl)-2-methyl-1,1-dioxo-1,4-thiazinan-4-yl]methanone] | 0.1 to 0.5
10 | C[C@@H](c1cnc([C@@]2(F)CN(C(=O)c3ccc(Br)c(Cl)c3)CCS2(=O)=O)s1)c1ccccc1F (racemic) [Compound 42a, (rac-2R)-4-(4-bromo-3-chlorobenzoyl)-2-fluoro-2-[5-[(rac-1R)-1-(2-fluorophenyl)ethyl]-1,3-thiazol-2-yl]-1λ^6-thiomorpholine-1,1-dione] | ≤ 0.1
11 | C[C@H](c1cnc(C2(F)CN(C(=O)c3ccc(Br)c(Cl)c3)CCS2(=O)=O)s1)c1ccccc1F (mixture of isomers) [Compound 42b, (rac-2R)-4-(4-bromo-3-chlorobenzoyl)-2-fluoro-2-[5-[(rac-1S)-1-(2-fluorophenyl)ethyl]-1,3-thiazol-2-yl]-1λ^6-thiomorpholine-1,1-dione] | ≤ 0.1
12 | C[C@@H](c1cnc(C2(F)CN(C(=O)c3ccc(Br)c(Cl)c3)CCS2(=O)=O)s1)c1ccccc1F (mixture of isomers) [Compound 42c, (rac-2S)-4-(4-bromo-3-chlorobenzoyl)-2-fluoro-2-[5-[(rac-1R)-1-(2-fluorophenyl)ethyl]-1,3-thiazol-2-yl]-1λ^6-thiomorpholine-1,1-dione] | > 5
13 | C[C@H](c1cnc(C2(F)CN(C(=O)c3ccc(Br)c(Cl)c3)CCS2(=O)=O)s1)c1ccccc1F (mixture of isomers) [Compound 42d, (rac-2S)-4-(4-bromo-3-chlorobenzoyl)-2-fluoro-2-[5-[(rac-1S)-1-(2-fluorophenyl)ethyl]-1,3-thiazol-2-yl]-1λ^6-thiomorpholine-1,1-dione] | 0.5 to 5
14 | O=C(c1ccc(Br)c(Cl)c1)N1CCS(=O)(=O)C(F)(c2ncc(Cc3ccccc3-c3ncccn3)s2)C1 (racemic) [Compound 44a, (rac-2R)-4-(4-bromo-3-chlorobenzoyl)-2-fluoro-2-(5-[[2-(pyrimidin-2-yl)phenyl]methyl]-1,3-thiazol-2-yl)-1λ^6-thiomorpholine-1,1-dione] | ≤ 0.1
15 | O=C(c1ccc(Br)c(Cl)c1)N1CCS(=O)(=O)C(F)(c2ncc(Cc3ccccc3-c3ncccn3)s2)C1 (racemic) [Compound 44b, (rac-2S)-4-(4-bromo-3-chlorobenzoyl)-2-fluoro-2-(5-[[2-(pyrimidin-2-yl)phenyl]methyl]-1,3-thiazol-2-yl)-1λ^6-thiomorpholine-1,1-dione] | 0.5 to 5
16 | O=C(c1ccc(Cl)c(F)c1)N1CCS(=O)(=O)C(c2cccs2)C1 (single isomer, unassigned) [Compound 7a, (4-chloro-3-fluoro-phenyl)-[1,1-dioxo-2-(2-thienyl)-1,4-thiazinan-4-yl]methanone] | 0.1 to 0.5
17 | O=C(c1ccc(Cl)c(F)c1)N1CCS(=O)(=O)C(c2cccs2)C1 (single isomer, unassigned) [Compound 7b, (4-chloro-3-fluoro-phenyl)-[1,1-dioxo-2-(2-thienyl)-1,4-thiazinan-4-yl]methanone] | 0.5 to 5
18 | Cc1cc(Cl)ccc1C(=O)N1CCS(=O)(=O)C(c2cccs2)C1 (single isomer, unassigned) [Compound 12a, (4-chloro-2-methyl-phenyl)-[1,1-dioxo-2-(2-thienyl)-1,4-thiazinan-4-yl]methanone] | > 5
19 | Cc1cc(Cl)ccc1C(=O)N1CCS(=O)(=O)C(c2cccs2)C1 (single isomer, unassigned) [Compound 12b, (4-chloro-2-methyl-phenyl)-[1,1-dioxo-2-(2-thienyl)-1,4-thiazinan-4-yl]methanone] | 0.5 to 5
20 | O=C(Nc1ccc(F)c(Cl)c1)N1CCS(=O)(=O)C(c2ccccc2)C1 (single isomer, unassigned) [Compound 18a, N-(3-chloro-4-fluoro-phenyl)-1, l-dioxo-2-phenyl-1,4-thiazinane-4-carboxamide] | 0.5 to 5
21 | O=C(Nc1ccc(F)c(Cl)c1)N1CCS(=O)(=O)C(c2ccccc2)C1 (single isomer, unassigned) [Compound 18b, N-(3-chloro-4-fluoro-phenyl)-1, l-dioxo-2-phenyl-1,4-thiazinane-4-carboxamide] | > 5
22 | O=C(c1ccc(Br)c(Cl)c1)N1CCS(=O)(=O)C(c2ccccc2)C1 (single isomer, unassigned) [Compound 19a, (4-bromo-3-chloro-phenyl)-(1,1-dioxo-2-phenyl-1,4-thiazinan-4-yl)methanone] | 0.1 to 0.5
23 | O=C(c1ccc(Br)c(Cl)c1)N1CCS(=O)(=O)C(c2ccccc2)C1 (single isomer, unassigned) [Compound 19b, (4-bromo-3-chloro-phenyl)-(1,1-dioxo-2-phenyl-1,4-thiazinan-4-yl)methanone] | 0.5 to 5
24 | C[C@@H]1CS(=O)(=O)[C@](F)(c2ncc(Cc3ccccc3)s2)CN1C(=O)c1ccc(Br)c(Cl)c1 (stereo in doubt) [Compound 47a, (4-bromo-3-chloro-phenyl)-[(rac-2S,5R)-2-(5-benzylthiazol-2-yl)-2-fluoro-5-methyl-1,1-dioxo-1,4-thiazinan-4-yl]methanone] | > 5
25 | C[C@@H]1CS(=O)(=O)[C@@](F)(c2ncc(Cc3ccccc3)s2)CN1C(=O)c1ccc(Br)c(Cl)c1 (stereo in doubt) [Compound 47b, (4-bromo-3-chloro-phenyl)-[(rac-2R,5R)-2-(5-benzylthiazol-2-yl)-2-fluoro-5-methyl-1,1-dioxo-1,4-thiazinan-4-yl]methanone] | ≤ 0.1
26 | C[C@H]1CS(=O)(=O)[C@](F)(c2ncc(Cc3ccccc3)s2)CN1C(=O)c1ccc(Br)c(Cl)c1 (stereo in doubt) [Compound 48a, (4-bromo-3-chloro-phenyl)-[(rac-2S,5S)-2-(5-benzylthiazol-2-yl)-2-fluoro-5-methyl-1,1-dioxo-1,4-thiazinan-4-yl]methanone] | 0.1 to 0.5
27 | C[C@H]1CS(=O)(=O)[C@@](F)(c2ncc(Cc3ccccc3)s2)CN1C(=O)c1ccc(Br)c(Cl)c1 (stereo in doubt) [Compound 48b, (4-bromo-3-chloro-phenyl)-[(rac-2R,5S)-2-(5-benzylthiazol-2-yl)-2-fluoro-5-methyl-1,1-dioxo-1,4-thiazinan-4-yl]methanone] | 0.1 to 0.5
